In ChEMBL document CHEMBL1150890, “Cyclotheonamides E2 and E3, new potent serine protease inhibitors from the marine sponge of the genus Theonella” (J Nat Prod, 1998):
Starred links: 1 amine or outer side, 2 acyl side, 3 side chain; linkers in the order of their positions; H or OH if unused. Positions of bridges follow the written chain, without caps; N, C: chain ends. Non-standard residues stand in square brackets, D forms with d. Residues, ends and D or L forms follow the SMILES beside them. *: point of attachment. Arg(ψCOCO) = N=C(N)NCCC[C@H](N[*:1])C(=O)C(=O)[*:2]; X1 = O=C(/C=C/[C@H](Cc1ccc(O)cc1)N[*:1])[*:2]; aIle = CC[C@@H](C)[C@H](N)C(=O)O; Dap = NC[C@H](N)C(=O)O; PhAc = O=C(Cc1ccccc1)*

Assays:
[1] = Inhibition of trypsin
Prothrombin = Prothrombin (Homo sapiens, UniProt P00734); assay: Inhibition of thrombin

| SMILES | IC50 [1] [nM] | IC50 (Prothrombin) [nM] |
| --- | --- | --- |
| N=C(N)NCCC[C@@H]1NC(=O)[C@@H]2CCCN2C(=O)[C@@H](NC=O)CNC(=O)/C=C/[C@H](Cc2ccc(O)cc2)NC(=O)[C@@H](Cc2ccccc2)NC(=O)C1=O [CYCLOTHEONAMIDE A] | 16 | 23 |
| CC[C@H](C)[C@H]1NC(=O)C(=O)[C@H](CCCNC(=N)N)NC(=O)[C@@H]2CCCN2C(=O)[C@@H](NC(=O)[C@H](C)NC(=O)CC(C)C)CNC(=O)/C=C/[C@H](Cc2ccc(O)cc2)NC1=O [CYCLOTHEONAMIDE E3] | 52 | 9.5 |
| CC[C@H](C)[C@H]1NC(=O)C(=O)[C@H](CCCNC(=N)N)NC(=O)[C@@H]2CCCN2C(=O)[C@@H](NC(=O)[C@H](C)NC(=O)c2ccccc2)CNC(=O)/C=C/[C@H](Cc2ccc(O)cc2)NC1=O [CYCLOTHEONAMIDE E2] | 55 | 13 |
| CC[C@@H](C)[C@@H]1NC(=O)C(=O)[C@H](CCCNC(=N)N)NC(=O)[C@@H]2CCCN2C(=O)[C@@H](NC(=O)[C@H](C)NC(=O)Cc2ccccc2)CNC(=O)/C=C/[C@H](Cc2ccc(O)cc2)NC1=O [CYCLOTHEONAMIDE E] (PhAc-A[Dap]P[Arg(ψCOCO)][aIle][X1]; lactam 2-C) | 30 | 2.9 |
